We go through two compounds from publication PMC8642539, “The novel BET inhibitor UM-002 reduces glioblastoma cell proliferation and invasion” (Scientific Reports, 2021).

SMILES strings stand for the structures. Like-named read-outs stand apart in the source and are kept apart here.

In data set [1] the test system is GBM22 cells. Nature of the data set: Cerebral brain organoid-GBM co-culture, proliferation and invasion. In kind it is cell-based, human. The note with it: 9 days co-culture; JQ1 500 nM, MK-8628 1000 nM, UM-002 100 nM. The text has this:
On day 0 of organoid production, induced pluripotent stem cells (iPSCs), at ~ 80% confluence, were dissociated into small clumps with gentle cell dissociation reagent (StemCell Technologies, 07174) and plated into round-bottom, low-attachment 96 well plates (ThermoFisher, 174925; ~ 15,000 cells per well). Initial media, consisting of mTeSR Plus (Stem Cell Technologies, 05825) supplemented with 5 µm A-83 (Peprotech, 9094360) and 5 µm Dorsomorphin (Peprotech, 8666430), was replaced every other day starting at day 2 by removing half of the media in each well (100 µL) and replacing with fresh media three times. On day 8, media was changed to a base media of Neurobasal A media (Gibco, 10888022) with NeuroCult SM1 (StemCell Technologies, 05711), glutamax (Gibco, 35050061), and Pen/strep (Gibco, 15140122) supplemented with EGF (20 ng/ml; Alomone Labs, E-100) and FGF2 (20 ng/ml; Alomone Labs, F-170). Media was similarly exchanged every other day until day 20 when the mitogenic supplements were exchanged for differentiating factors: BDNF (20 ng/ml; Alomone Labs, B-250) and NT3 (20 ng/ml; Alomone Labs, N-260) in the same base media. After two weeks in differentiation media, organoids could be maintained in the base media for > 100 days[41]. […]

Another data set has as its system GBM39 cells. Nature of the data set: In vitro dose response, CellTiter-Glo ATP, GBM39. It counts as cell-based. Particulars: Homo sapiens. How it is done:
(§1) Figure 1 UM-002 reduces GBM cell proliferation in vitro. (A) Structure of UM-002. […] Reduction in ATP levels was measured using CellTiter-Glo after 72 h of compound treatment and luminescence was normalized to the positive control. Dose response curves were calculated using a variable slope (4 parameters) fit. EC50 and the percentage of positive control at EC50 was calculated for each compound.
(§2) The patient derived xenograft (PDX) glioblastoma cell lines, GBM22 and GBM39, were obtained from the Mayo Clinic Brain Tumor PDX national resource. Cells were cultured as previously described[39],[40]. Since genetic drift is known to occur with passage in vivo and in vitro, a stock of early passage tumor tissue is maintained in storage and xenograft lines are passaged a maximum of 20 times before restoration from early passage tissue. […]
(§3) PDX cells were plated at 3000 cells/well in a 384 well flat bottom plate, and adherent cultures were established overnight. […] Following a 72-h incubation, CellTiter-Glo (Promega, Wisconsin, USA) was used to measure ATP content and luminescence was read on an EnVision plate reader, as previously described. Luminescence was normalized to 10 µM Velcade as a positive control, and 0.1% DMSO as a negative control. Dose response curves were calculated in GraphPad PRISM (version 8.4.3) using a variable slope (four parameter) fit.
(In general: In ATP-based viability assays light output follows the ATP content of the culture.)

Another data set relates to cerebral brain organoids. Briefly: Brain organoid viability (organoid volume and surface area) in co-culture. In kind it is cell-based, human. Particulars: 9 days; JQ1 500 nM, MK-8628 1000 nM, UM-002 100 nM.
A further data set relates to recurrent GBM. Also on record: method as in doi:10.1200/JCO.2016.34.15_suppl.e14123. Particulars: 12 recurrent GBM patients, study terminated; cited from earlier work.
For data set [2], the system named is GBM22 cells. Briefly: In vitro dose response, CellTiter-Glo ATP, GBM22. In kind it is cell-based. Particulars: Homo sapiens, 72 h. How it is done:
as §1, §2, §3

Details of data set [3]: method as in PMID 26392221. Particulars: cited from earlier work.

Method for cerebral brain organoids: GBM22 cells were dissociated into a single cell suspension with Trypsin (Gibco, 15,400,054) and seeded (17,500 cells/well) into round-bottom, low-attachment 96-well plates containing a single mature organoid per well. Cells were seeded by removing 100 µL of media and replacing with 100 µL of cell suspension. GBM cells were allowed to settle around the organoid and attach overnight. After 24 h (day 1 of co-culturing) organoids were either fixed (see below) and stored in PBS as an untreated control or treated with compounds. For treatment, compounds were dissolved in DMSO and diluted in organoid maintenance media. […] On the first day of treatment, organoids were treated by removing half of the media (100 µL) and replacing with 100 µL of a 2 × compound solution. Compounds were renewed with 1 × solutions in the new media every other day following the normal media replacement regimen until the conclusion of the experiment.
Statistical comparisons performed using an unpaired, two-tailed t test or one-way ANOVA with Tukey HSD post-hoc.

As for `Cc1sc2c(c1C)C(c1ccc(Cl)cc1)=N[C@@H](CC(=O)Nc1ccc(O)cc1)c1nnc(C)n1-2` [MK-8628], in the data set on GBM22 cells [1], the “Number of invading GBM cells relative to DMSO control” value was “reduced”. Moreover, the “Total number of GBM cells relative to DMSO control” value with GBM22 cells [1] is “reduced”. The EC50 in the data set with GBM39 cells (GBM39, 72 h, read-out: GBM39 logEC50 (converted)) was 0.813 µM; in the data set with GBM39 cells (GBM39, 72 h, CellTiter-Glo, 4 parameter fit, read-out: GBM39 EC50) it was 0.812 µM; in the data set on GBM22 cells [2] (read-out: GBM22 logEC50 (converted)), 1.39 µM; in the data set with GBM22 cells [2] (CellTiter-Glo, 4 parameter fit, read-out: GBM22 EC50) it was 1.39 µM. For the same compound, the “Brain organoid viability, as determined by organoid volume and surface area” value with cerebral brain organoids is reported as “did not negatively impact”. For the same compound, the Progression-free survival result with recurrent GBM is listed as “no increase in progression-free survival”.
On to `CC(=O)N1c2ccc(-c3ccc(CN4CCCCC4)cc3)cc2[C@H](Nc2ccccc2)C[C@H]1C` [I-BET858], for which the Phenotype in mice entry in data set [3] is on record as “autism spectrum disorder phenotype”.
